The values that follow are results of earlier work, collected in patent publication US5370879A, “Formulations and their use in the treatment of neurological diseases” (Elan Corporation, plc, priority 1990, dated 1994).

SMILES strings stand for the structures.

Data set [1] deals with MS patients. As to conditions: orally in multiple daily doses.
In data set [2] the test system is MS patients.
The subject of data set [3] is patients with Alzheimer's disease.
Data set [4] relates to potassium ion flow in nerve impulse transmission.
[5] abbreviates: orally in multiple daily doses over 2-5 days.

As for `Nc1ccncc1N` [3,4-DAP, 3,4-Di-aminopyridine], in data set [1], the specific neurological deficits result is listed as “improve specific neurological deficits” and the “visual evoked response latencies” value is “improve”.

`Nc1ccncc1` [Example 4-AP, 4-Aminopyridine]: in data set [2], the “conduction of nerve impulses” value is listed as “improve the conduction of nerve impulses” and the “symptoms in MS patients” value is recorded as “alleviating symptoms in MS patients”. Further, in data set [2] (setting [5]), the “improvements noted in clinical trials” value is listed as “mild to marked improvements” and the side effects result is recorded as “minimal side effects”. Further, the mental functions result in data set [3] is listed as “improve the mental functions”. In data set [4], the “conduction in blocked demyelinated nerves” value is listed as “effective in restoring conduction in blocked demyelinated nerves” and the “potassium ion flow in nerve impulse transmission” value is “slow the potassium ion flow”.
